# In patent US20230192617A1, “AZABICYCLIC(THIO)AMIDES AS FUNGICIDAL COMPOUNDS” (Bayer CropScience Aktiengesellschaft, priority 2020, published 2023):
# What was measured:
# [1] = Measurement of Log P values by HPLC on reversed phase columns (EEC directive 79/831 Annex V.A8); assay type: physicochemical
# Experimental: A-1.1. Measurement of Log P Values
# Measurement of Log P values as provided herein was performed according to EEC directive 79/831 Annex V.A8 by HPLC (High Performance Liquid Chromatography) on reversed phase columns with the following methods:
# ^[a] Log P value is determined by measurement of LC-UV, in an acidic range, with 0.1% formic acid in water and acetonitrile as eluent (linear gradient from 10% acetonitrile to 95% acetonitrile).
# ^[b] Log P value is determined by measurement of LC-UV, in a neutral range, with 0.001 molar ammonium acetate solution in water and acetonitrile as eluent (linear gradient from 10% acetonitrile to 95% acetonitrile).
# ^[c] Log P value is determined by measurement of LC-UV, in an acidic range, with 0.1% phosphoric acid and acetonitrile as eluent (linear gradient from 10% acetonitrile to 95% acetonitrile).
# If more than one Log P value is available within the same method, all the values are given and separated by “+”. […]
# [2] = tested on: Botrytis cinerea; test: In vivo preventive test on Botrytis cinerea (grey mould); conditions: 500 ppm of active ingredient, preventive spray on gherkin or cabbage, evaluated 4 to 5 days after inoculation, read-out: efficacy
# Experimental: B-2. In Vivo Preventive Test on Botrytis cinerea (Grey Mould) [table] The active ingredients were made soluble and homogenized in a mixture of Dimethyl sulfoxide/Acetone/Tween® 80 and then diluted in water to the desired concentration. The young plants of gherkin or cabbage were treated by spraying the active ingredient prepared as described above. Control plants were treated only with an aqueous solution of Acetone/Dimethyl sulfoxide/Tween® 80. After 24 hours, the plants were contaminated by spraying the leaves with an aqueous suspension of Botrytis cinerea spores. The contaminated gherkin plants were incubated for 4 to 5 days at 17° C. and at 90% relative humidity. The contaminated cabbage plants were incubated for 4 to 5 days at 20° C. and at 100% relative humidity.
# [3] = tested on: Alternaria alternata; test: Alternaria alternata in vitro cell test; assay type: cell-based; conditions: 120 h, 20 ppm of active ingredient, liquid culture, 5 days incubation, spectrometric measurement of mycelium growth, read-out: efficacy (inhibition of fungal growth)
# Experimental: (§1) B-6. Alternaria alternata In Vitro Cell Test [table] Fungicides were solubilized in DMSO and the solution used to prepare the required range of concentrations. The final concentration of DMSO used in the assay was ≤1%. A spore suspension of A. alternata was prepared and diluted to the desired spore density. Fungicides were evaluated for their ability to inhibit spore germination and mycelium growth in liquid culture assay. The compounds were added in the desired concentration to the culture medium with spores. After 5 days incubation, fungi-toxicity of compounds was determined by spectrometric measurement of mycelium growth. Inhibition of fungal growth was determined by comparing the absorbance values in wells containing the fungicides with the absorbance in control wells without fungicides.
# [4] = tested on: Colletotrichum lindemuthianum; test: B-8. Colletotrichum lindemuthianum in vitro cell test; assay type: cell-based; conditions: 144 h, 20 ppm of active ingredient, 6 days incubation, liquid culture, absorbance, read-out: efficacy (inhibition of fungal growth)
# Experimental: as §1, with “B-8. Colletotrichum lindemuthianum In” for “B-6. Alternaria alternata In”, “of C. lindemuthianum” for “of A. alternata”, “inhibit spores” for “inhibit spore”, “After 6” for “After 5”
# [5] = tested on: Alternaria brassicae; test: In vivo preventive test on Alternaria brassicae (leaf spot on radish or cabbage); conditions: 500 ppm of active ingredient, preventive spray on radish or cabbage, evaluated 3 to 4 days after inoculation, read-out: efficacy
# Experimental: B-1. In Vivo Preventive Test on Alternaria brassicae (Leaf Spot on Radish or Cabbage) [table] The active ingredients were made soluble and homogenized in a mixture of Dimethyl sulfoxide/Acetone/Tween® 80 and then diluted in water to the desired concentration. The young plants of radish or cabbage were treated by spraying the active ingredient prepared as described above. Control plants were treated only with an aqueous solution of Acetone/Dimethyl sulfoxide/Tween® 80. After 24 hours, the plants were contaminated by spraying the leaves with an aqueous suspension of Alternaria brassicae spores. The contaminated radish or cabbage plants were incubated for 3 to 4 days at 20° C. and at 100% relative humidity.
# [6] = reversed phase HPLC column, method [a]: LC-UV, acidic range, 0.1% formic acid in water and acetonitrile as eluent
# [7] = method [a]: LC-UV, acidic range, 0.1% formic acid in water and acetonitrile as eluent
# [8] = method [b]: LC-UV, neutral range, 0.001 molar ammonium acetate solution in water and acetonitrile as eluent
smiles,measurement,setting,value
Cc1ccc(C(F)(F)CNC(=O)c2c(Oc3cccc(C#N)c3)nnc3ccccc23)c(C)c1 [I-030],chromatographic logP,[1]; [6],3.58
same,pest or weed control at 500 ppm,[2],90 to 100%
same,inhibition at 20 ppm,[3],90 to 100%
same,inhibition at 20 ppm,[4],90 to 100%
O=C(NC[C@@H](F)c1ccc(Cl)c(Cl)c1)c1c(Oc2cccc(Cl)c2)nnc2ccccc12 (racemic) [I-051],chromatographic logP,[1]; [6],4.23
same,pest or weed control at 500 ppm,[5],70 to 79%
same,inhibition at 20 ppm,[3],90 to 100%
same,inhibition at 20 ppm,[4],90 to 100%
O=C(N/C=C\c1ccccc1)c1c(Oc2cccc(C(F)(F)F)c2)cnc2ccccc12 [I-001],chromatographic logP,[1]; [6],4.17
same,pest or weed control at 500 ppm,[2],90 to 100%
same,inhibition at 20 ppm,[3],70 to 79%
O=C(NCC(F)(F)c1ccc(Cl)cc1)c1c(Oc2ccc(Cl)cc2)nnc2ccccc12 [I-018],chromatographic logP,[1]; [6],3.96
same,pest or weed control at 500 ppm,[2],90 to 100%
same,inhibition at 20 ppm,[3],80 to 89%
"Cc1ccc(C(F)(F)CNC(=S)c2c(Oc3cccc(Cl)c3)nnc3ccccc23)c(C)c1 [I-158, 3-(3-chlorophenoxy)-N-[2-(2,4-dimethylphenyl)-2,2-difluoro-ethyl]cinnoline-4-carbothioamide]",chromatographic logP,[1]; [6],5.01
same,pest or weed control at 500 ppm,[5],90 to 100%
same,inhibition at 20 ppm,[3],90 to 100%
same,inhibition at 20 ppm,[4],90 to 100%
Cc1ccc(CCNC(=O)c2c(Oc3cccc(C(F)(F)F)c3)nnc3c(C)cccc23)c(C)c1 [I-005],chromatographic logP,[1]; [6],4.69
same,pest or weed control at 500 ppm,[2],90 to 100%
same,inhibition at 20 ppm,[3],90 to 100%
same,inhibition at 20 ppm,[4],80 to 89%
Cc1ccc2c(C(=O)N[C@H]3CCCc4cc(Br)ccc43)c(Oc3cccc(C(F)(F)F)c3)nnc2c1 (racemic) [I-181],chromatographic logP,[1]; [6],4.88
same,inhibition at 20 ppm,[3],80 to 89%
N#Cc1cccc(Oc2nnc3ccccc3c2C(=O)NCC(F)(F)c2ccc(Cl)cn2)c1 [I-248],chromatographic logP,[1]; [6],2.84
same,chromatographic logP,"[1]; reversed phase HPLC column, method [b]: LC-UV, neutral range, 0.001 molar ammonium acetate solution in water and acetonitrile as eluent",2.94
same,inhibition at 20 ppm,[4],70 to 79%
Cc1ccc(C(F)(F)CNC(=O)c2c(Oc3ccc(Cl)cc3)nnc3ccccc23)c(C)c1 [I-200],chromatographic logP,[1]; [6],4.23
CCOC(=O)c1c(Oc2cccc(C(F)(F)F)c2)nnc2c1CCC2(C)C [1-44],chromatographic logP,[1]; [6],4.4
CCOC(=O)c1c(Oc2cccc(C(F)F)c2)nnc2c1CCCC2 [1-23],chromatographic logP,[1]; [7],3.37
same,chromatographic logP,[1]; [8],3.19
O=C(O)c1c(Oc2cccc(C(F)F)c2)nnc2ccccc12 [1-11],chromatographic logP,[1]; [7],1.87
O=C(O)c1c(Oc2cncc(C(F)(F)F)c2)nnc2ccccc12 [1-06],chromatographic logP,[1]; [6],1.83
Cc1cccc(Oc2nnc3ccccc3c2C(=O)O)c1 [1-04],chromatographic logP,[1]; [7],1.92
Cc1ccc(C(F)(F)CNC(=O)c2c(Br)cnc3nccnc23)c(C)c1 [3-01],chromatographic logP,[1]; [6],2.56
C#Cc1cccc(Oc2cnc3ccccc3c2C(=O)O)c1 [1-49],chromatographic logP,[1]; [7],2.2
"O=C(O)c1c(Oc2cccc(Cl)c2F)nnc2c1CCCC2 [1-29, 3-(3-chloro-2-fluoro-phenoxy)-5,6,7,8-tetrahydrocinnoline-4-carboxylic acid]",chromatographic logP,[1]; [7],1.46
same,chromatographic logP,[1]; [8],0.42
C=Cc1cccc(Oc2cnc3ccccc3c2C(=O)O)c1 [1-50],chromatographic logP,[1]; [7],2.41
CCOC(=O)c1c(Oc2cccc(C(F)(F)F)c2)nnc2cc(C3CC3)ccc12 [1-53],chromatographic logP,[1]; [6],4.81
COC(=O)c1c(Oc2cccc(C(F)(F)F)c2)nnc2ccsc12 [1-55],chromatographic logP,[1]; [6],3.34
O=C(O)c1c(Oc2cccc(C(F)(F)F)c2)nnc2c1COCC2 [1-33],chromatographic logP,[1]; [6],1.38
CCOC(=O)c1c(Oc2cccc(C(F)(F)F)c2)nnc2cc(F)ccc12 [1-58],chromatographic logP,[1]; [6],4.16
O=C(N[C@H]1CCCc2cc(Cl)sc21)c1c(Oc2cccc(C(F)(F)F)c2)cnc2ccccc12 (racemic) [I-040],chromatographic logP,[1]; [6],4.54
same,pest or weed control at 500 ppm,[2],80 to 89%
same,inhibition at 20 ppm,[3],90 to 100%
same,inhibition at 20 ppm,[4],90 to 100%
CCOC(=O)c1c(Oc2cccc(C(F)(F)F)c2)nnc2c1CCCC2 [1-22],chromatographic logP,[1]; [7],3.9
O=C(O)c1c(Oc2cccc(C(F)F)c2)nnc2c1CCCC2 [1-32],chromatographic logP,[1]; [7],1.18
O=C(O)c1c(Oc2cccc(C(F)(F)F)c2)nnc2cnccc12 [1-05],chromatographic logP,[1]; [6],2.04
O=C(O)c1c(Oc2cccc(Cl)c2)nnc2c1CCCC2 [1-28],chromatographic logP,[1]; [6],1.28
COc1ccc2c(C(=O)NCCc3ccc(C)cc3C)c(Oc3cccc(C(F)(F)F)c3)nnc2c1 [I-009],chromatographic logP,[1]; [6],4.3
same,inhibition at 20 ppm,[3],90 to 100%
C[C@H](NC(=O)c1c(Oc2ccc(Cl)cc2)nnc2ccccc12)c1cccc(C(F)(F)F)c1 (racemic) [I-204],chromatographic logP,[1]; [6],3.92
O=C(O)c1c(Oc2cccc(C(F)(F)F)c2)nnc2cc(C3CC3)ccc12 [1-34],chromatographic logP,[1]; [6],3.21
O=C(O)c1c(Oc2cccc(C(F)(F)F)c2)nnc2ccsc12 [1-57],chromatographic logP,[1]; [6],2.39
Cc1ccc(CCNC(=O)c2c(Oc3cccc(C(F)(F)F)c3)nnc3cc(F)ccc23)c(C)c1 [I-007],chromatographic logP,[1]; [6],4.4
same,pest or weed control at 500 ppm,[2],90 to 100%
same,inhibition at 20 ppm,[3],90 to 100%
same,inhibition at 20 ppm,[4],90 to 100%
COC(=O)c1c(Oc2cccc(C(F)(F)F)c2)nnc2ccccc12 [1-02],chromatographic logP,[1]; [7],3.62
Cc1cccc(Oc2cnc3ccccc3c2C(=O)O)c1 [1-43],chromatographic logP,[1]; [6],2.18
COC(=O)c1c(Oc2cccc(C#N)c2)nnc2ccccc12 [1-08],chromatographic logP,[1]; [6],2.64
O=C(NCC(F)(F)c1ccc(Cl)cn1)c1c(Oc2cccc(C(F)(F)F)c2)cnc2ccccc12 [I-038],chromatographic logP,[1]; [6],3.74
same,inhibition at 20 ppm,[4],70 to 79%
"O=C(O)c1c(Oc2cccc(C(F)(F)F)c2)cnc2ccoc12 [1-15, 6-[3-(trifluoromethyl)phenoxy]furo[3,2-b]pyridine-7-carboxylic acid]",chromatographic logP,[1]; [7],2.08
"O=C(O)c1c(Oc2cccc(C(F)(F)F)c2)cnc2ccccc12 [1-07, 3-(3-(trifluoromethyl)phenoxy)quinoline-4-carboxylic acid]",chromatographic logP,[1]; [7],2.57
N#Cc1cccc(Oc2nnc3ccccc3c2C(=O)NCC(F)(F)c2ccc(Br)cc2Cl)c1 [I-032],chromatographic logP,[1]; [6],3.77
same,pest or weed control at 500 ppm,[2],90 to 100%
same,inhibition at 20 ppm,[3],90 to 100%
same,inhibition at 20 ppm,[4],90 to 100%
CC(C)OC(=O)c1c(Oc2cccc(Cl)c2)nnc2ccccc12 [1-14],chromatographic logP,[1]; [7],4.19
CC1(C)COc2nnc(Oc3cccc(C(F)(F)F)c3)c(C(=O)O)c2OC1 [1-20],chromatographic logP,[1]; [6],2.02
O=C(O)c1c(Oc2cccc(Cl)c2F)nnc2c1CCC2 [1-56],chromatographic logP,[1]; [6],1.53
COC(=O)c1c(Oc2cccc(C(F)F)c2)nnc2ccccc12 [1-09],chromatographic logP,[1]; [7],3.06
Cc1ccc(C(F)(F)CNC(=O)c2c(Cl)nnc3ccccc23)c(C)c1 [3-02],chromatographic logP,[1]; [6],3.23
O=C(O)c1c(Oc2ccc(Cl)cc2)nnc2ccccc12 [1-16],chromatographic logP,[1]; [6],2.12
C[C@H](NC(=O)c1c(Oc2cccc(C(F)(F)F)c2)nnc2ccccc12)c1cccc(C(F)(F)F)c1 (racemic) [I-022],chromatographic logP,[1]; [6],4.03
same,pest or weed control at 500 ppm,[2],90 to 100%
same,inhibition at 20 ppm,[3],80 to 89%
same,inhibition at 20 ppm,[4],70 to 79%
